Test results: patent publication US9637520B2, “Template-fixed peptidomimetics with CXCR7 modulating activity” (POLYPHOR AG, priority 2010, dated 2017)
Non-standard residues stand in square brackets, D forms with d. Residues, ends and D or L forms follow the SMILES beside them. *: point of attachment. dPro(cis-4-NH2) = N[C@H]1CN[C@@H](C(=O)O)C1; dPro(4S-NH2) = N[C@@H]1CN[C@@H](C(=O)O)C1; Oic = O=C(O)[C@@H]1C[C@@H]2CCCC[C@@H]2N1; Morpholine(3S-CO) = O=C(O)[C@@H]1COCCN1; Pro(4S-NH2) = N[C@@H]1CN[C@H](C(=O)O)C1; Pro(4R-NH2) = N[C@H]1CN[C@H](C(=O)O)C1; 1Nal = N[C@@H](Cc1cccc2ccccc12)C(=O)O; 2Nal = N[C@@H](Cc1ccc2ccccc2c1)C(=O)O; Pro(3S-OH) = O=C(O)[C@H]1NCC[C@@H]1O; cisHyp = O=C(O)[C@@H]1C[C@H](O)CN1; hArg = N=C(N)NCCCC[C@H](N)C(=O)O; 3Pal = N[C@@H](Cc1cccnc1)C(=O)O; Tic = O=C(O)[C@@H]1Cc2ccccc2CN1; d3Pal = N[C@H](Cc1cccnc1)C(=O)O; dHyp = O=C(O)[C@H]1C[C@H](O)CN1; Agb = N=C(N)NCC[C@H](N)C(=O)O; Chg = N[C@H](C(=O)O)C1CCCCC1; Abu = CC[C@H](N)C(=O)O; Bn = c1ccc(C*)cc1

Target: T1, CXCR7 (Homo sapiens, UniProt P25106)
T1 construct: host or cells: CHO (PathHunter CHO-CXCR7 β-arrestin cells)
Test: CXCR7 β-arrestin recruitment assay (PathHunter CHO-CXCR7, DiscoverX), agonistic assay
Format: cell-based
Details: agonistic assay; CHO CXCR7 β-arrestin cells; 90 min at 37° C.; chemiluminescence; read-out: β-Arrestin EC50
Experimental: Lyophilized peptides were weighed on a Microbalance (Mettler MX5) and dissolved in DMSO to a final concentration of 10 mM unless otherwise stated. Stock solutions were kept at +4° C., and protected from light.
2.2 CXCR7 β-Arrestin Recruitment Assay
The PathHunter CHO-CXCR7 (DiscoverX) assay was performed according to the manufacturer's protocol. In brief, CHO CXCR7 β-arrestin cells were seeded at a density of 5000 cells per well in 40 μl of F12 medium in black 96-half volume well culture plates and incubated overnight at 37° C. in a humidified atmosphere with 5% CO2. The next day, serial dilutions of PEM compounds have been prepared in DMSO and subsequently diluted in HBSS buffer containing 0.1% BSA.
For agonistic assay, 10 μl of compound solution or a solution of stromal cell-derived factor-1 (SDF-1) as positive control was added to the cells with a final DMSO concentration of 1% (v/v). The plate was incubated for 90 min at 37° C. in 5% CO2 incubator with gentle shaking (300 rpm) before addition of 40 μl of detection reagent per well. Reaction was developed for 90 min at room temperature in the dark with shaking, and chemiluminescence was measured with a Topcount (Perkin Elmer) luminescence counter.

T1 sequence (P25106 whole entry): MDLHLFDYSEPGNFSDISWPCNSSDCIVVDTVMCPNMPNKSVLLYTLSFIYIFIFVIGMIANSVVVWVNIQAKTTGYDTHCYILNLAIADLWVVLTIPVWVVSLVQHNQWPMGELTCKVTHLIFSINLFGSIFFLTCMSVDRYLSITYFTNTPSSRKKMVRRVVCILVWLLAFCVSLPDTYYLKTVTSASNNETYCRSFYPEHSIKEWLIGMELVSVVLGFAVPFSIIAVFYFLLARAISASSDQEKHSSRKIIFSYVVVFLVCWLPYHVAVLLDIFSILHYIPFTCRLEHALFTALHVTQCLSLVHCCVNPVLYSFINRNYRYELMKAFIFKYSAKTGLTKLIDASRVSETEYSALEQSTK

EC50 [nM] | SMILES
248 ± 16.5 | N=C(N)NCCC[C@@H]1NC(=O)[C@@H]2Cc3ccccc3CN2C(=O)[C@H]2C[C@@H](N)CN2C(=O)[C@H](CCCNC(=N)N)NC(=O)[C@H](Cc2c[nH]c3ccccc23)NC(=O)[C@@H](Cc2ccccc2)NC1=O [compound 33, cyclo(-Arg-^DPhe-Trp-Arg-^DPro((4R)NH2)-Tic-)] (cyclo(R[dF]WR[dPro(cis-4-NH2)][Tic]))
12.2 ± 5.4 | N=C(N)NCCCC[C@@H]1NC(=O)[C@@H]2Cc3ccccc3CN2C(=O)[C@H]2C[C@@H](N)CN2C(=O)[C@H](CCCNC(=N)N)NC(=O)[C@H](Cc2c[nH]c3ccccc23)NC(=O)[C@@H](Cc2ccccc2)NC1=O [compound 35, cyclo(-hArg-^DPhe-Trp-Arg-^DPro((4R)NH2)-Tic-)] (cyclo(R[dPro(cis-4-NH2)][Tic][hArg][dF]W))
452 ± 15.8 | N=C(N)NCCC[C@@H]1NC(=O)[C@H](Cc2c[nH]c3ccccc23)NC(=O)[C@@H](Cc2ccccc2)NC(=O)[C@H](CCNC(=N)N)NC(=O)[C@@H]2Cc3ccccc3CN2C(=O)[C@H]2C[C@@H](N)CN2C1=O [compound 36, cyclo(-Agb-^DPhe-Trp-Arg-^DPro((4R)NH2)-Tic-)] (cyclo([Agb][dF]WR[dPro(cis-4-NH2)][Tic]))
5.1 ± 0.9 | N=C(N)NCCC[C@@H]1NC(=O)[C@H](Cc2c[nH]c3ccccc23)NC(=O)[C@@H](Cc2ccccc2)NC(=O)[C@H](Cc2cccnc2)NC(=O)[C@@H]2Cc3ccccc3CN2C(=O)[C@H]2C[C@@H](N)CN2C1=O [compound 37, cyclo(-3Pal-^DPhe-Trp-Arg-^DPro((4R)NH2)-Tic-)] (cyclo([3Pal][dF]WR[dPro(cis-4-NH2)][Tic]))
6.1 ± 1.5 | N=C(N)NCCC[C@@H]1NC(=O)[C@H](Cc2c[nH]c3ccccc23)NC(=O)[C@@H](Cc2cccnc2)NC(=O)[C@H](Cc2c[nH]c3ccccc23)NC(=O)[C@@H]2Cc3ccccc3CN2C(=O)[C@H]2C[C@@H](N)CN2C1=O [compound 38, cyclo(-Trp-^D3Pal-Trp-Arg-^DPro((4R)NH2)-Tic-)] (cyclo(R[dPro(cis-4-NH2)][Tic]W[d3Pal]W))
352 ± 79.3 | N=C(N)NCCCC[C@@H]1NC(=O)[C@H](Cc2c[nH]c3ccccc23)NC(=O)[C@@H](Cc2ccccc2)NC(=O)[C@H](CCCNC(=N)N)NC(=O)[C@@H]2Cc3ccccc3CN2C(=O)[C@H]2C[C@@H](N)CN2C1=O [compound 39, cyclo(-Arg-^DPhe-Trp-hArg-^DPro((4R)N H2)-Tic-)] (cyclo(R[dF]W[hArg][dPro(cis-4-NH2)][Tic]))
13.1 ± 4.4 | N=C(N)NCCC[C@@H]1NC(=O)[C@@H]2Cc3ccccc3CN2C(=O)[C@H]2C[C@H](N)CN2C(=O)[C@H](CCCNC(=N)N)NC(=O)[C@H](Cc2c[nH]c3ccccc23)NC(=O)[C@@H](Cc2ccccc2)NC1=O [compound 40, cyclo(-Arg-^DPhe-Trp-Arg-^DPro((4S)NH2)-Tic-)] (cyclo(R[dF]WR[dPro(4S-NH2)][Tic]))
20.5 ± 10.9 | N=C(N)NCCC[C@@H]1NC(=O)[C@@H]2C[C@@H]3CCCC[C@@H]3N2C(=O)[C@H]2C[C@@H](N)CN2C(=O)[C@H](CCCNC(=N)N)NC(=O)[C@H](Cc2c[nH]c3ccccc23)NC(=O)[C@@H](Cc2ccccc2)NC1=O [compound 42, cyclo(-Arg-^DPhe-Trp-Arg-^DPro((4R)NH2)-Oic-)] (cyclo([Oic]R[dF]WR[dPro(cis-4-NH2)]))
36.9 ± 14 | N=C(N)NCCC[C@@H]1NC(=O)[C@H](Cc2c[nH]c3ccccc23)NC(=O)[C@@H](Cc2ccccc2)NC(=O)[C@H](Cc2c[nH]c3ccccc23)NC(=O)[C@@H]2C[C@H](N)CN2C(=O)[C@H]2CCCN2C1=O [compound 44, cyclo(-Trp-^DPhe-Trp-Arg-^DPro-Pro((4S)NH2)—)] (cyclo(R[dP][Pro(4S-NH2)]W[dF]W))
26.9 ± 12.6 | N=C(N)NCCC[C@@H]1NC(=O)[C@H](Cc2c[nH]c3ccccc23)NC(=O)[C@@H](Cc2ccccc2)NC(=O)[C@H](Cc2c[nH]c3ccccc23)NC(=O)[C@@H]2C[C@@H](N)CN2C(=O)[C@H]2CCCN2C1=O [compound 45, cyclo(-Trp-^DPhe-Trp-Arg-^DPro-Pro((4R)NH2)—)] (cyclo(R[dP][Pro(4R-NH2)]W[dF]W))
132 ± 53.1 | N=C(N)NCCC[C@@H]1NC(=O)[C@H](Cc2c[nH]c3ccccc23)NC(=O)[C@@H](Cc2ccccc2)NC(=O)[C@H](Cc2c[nH]c3ccccc23)NC(=O)[C@@H]2COCCN2C(=O)[C@H]2CCCN2C1=O [compound 46, cyclo(-Trp-^DPhe-Trp-Arg-^DPro-Mor-)] (cyclo(R[dP][Morpholine(3S-CO)]W[dF]W))
7.6 ± 10.1 | N=C(N)NCCC[C@@H]1NC(=O)[C@H](Cc2c[nH]c3ccccc23)NC(=O)[C@@H](Cc2ccccc2)NC(=O)[C@H](Cc2c[nH]c3ccccc23)NC(=O)[C@@H]2C[C@H](OCc3ccccc3)CN2C(=O)[C@H]2C[C@H](O)CN2C1=O [compound 49, cyclo(-Trp-^DPhe-Trp-Arg-^DPro((4S)OH)-(4S)-Hyp(Bn)-)] (cyclo(R[dHyp][cisHyp](Bn)W[dF]W))
6.6 ± 1.6 | N=C(N)NCCC[C@@H]1NC(=O)[C@H](Cc2c[nH]c3ccccc23)NC(=O)[C@@H](Cc2ccccc2)NC(=O)[C@H](Cc2c[nH]c3ccccc23)NC(=O)[C@@H]2C[C@H](OCc3ccccc3)CN2C(=O)[C@H]2C[C@@H](N)CN2C1=O [compound 50, cyclo(-Trp-^DPhe-Trp-Arg-^DPro((4R)NH2)-(4S)-Hyp(Bn)-)] (cyclo(R[dPro(cis-4-NH2)][cisHyp](Bn)W[dF]W))
13.7 ± 5.1 | N=C(N)NCCC[C@@H]1NC(=O)[C@@H](CCCNC(=N)N)NC(=O)[C@H](Cc2cccc3ccccc23)NC(=O)[C@@H]2[C@@H](O)CCN2C(=O)[C@H]2CCCN2C(=O)[C@H](Cc2c[nH]c3ccccc23)NC1=O [compound 52, cyclo(-1Nal-^DArg-Arg-Trp-^DPro-Pro((3S)OH)—)] (cyclo([1Nal][dR]RW[dP][Pro(3S-OH)]))
76.8 ± 47.9 | CC[C@H](C)[C@@H]1NC(=O)[C@@H]2[C@@H](O)CCN2C(=O)[C@H]2CCCN2C(=O)[C@H](Cc2ccc3ccccc3c2)NC(=O)[C@H](CCCNC(=N)N)NC(=O)[C@@H](CCCNC(=N)N)NC1=O [compound 53, cyclo(-Ile-^DArg-Arg-2Nal-^DPro-Pro((3S)OH)—)] (cyclo([2Nal][dP][Pro(3S-OH)]I[dR]R))
271 ± 0.2 | CC(C)[C@@H]1NC(=O)[C@H]([C@@H](C)O)NC(=O)[C@H]2CCCN2C(=O)[C@H](Cc2c[nH]c3ccccc23)NC(=O)[C@H](CCCNC(=N)N)NC(=O)[C@@H](CCCNC(=N)N)NC1=O [compound 57, cyclo(-Val-^DArg-Arg-Trp-^DPro-Thr-)] (cyclo(RW[dP]TV[dR]))
330 ± 93.2 | CC[C@@H]1NC(=O)[C@H]([C@@H](C)O)NC(=O)[C@H]2CCCN2C(=O)[C@H](Cc2c[nH]c3ccccc23)NC(=O)[C@H](CCCNC(=N)N)NC(=O)[C@@H](CCCNC(=N)N)NC1=O [compound 58, cyclo(-Abu-^DArg-Arg-Trp-^DPro-Thr-)] (cyclo([Abu][dR]RW[dP]T))
6.7 ± 2.2 | C[C@@H](O)[C@@H]1NC(=O)[C@H]2CCCN2C(=O)[C@H](Cc2c[nH]c3ccccc23)NC(=O)[C@H](CCCNC(=N)N)NC(=O)[C@@H](CCCNC(=N)N)NC(=O)[C@H](C2CCCCC2)NC1=O [compound 59, cyclo(-Chg-^DArg-Arg-Trp-^DPro-Thr-)] (cyclo([Chg][dR]RW[dP]T))
5.3 ± 3.6 | CC(C)C[C@@H]1NC(=O)[C@H]([C@@H](C)O)NC(=O)[C@H]2CCCN2C(=O)[C@H](Cc2c[nH]c3ccccc23)NC(=O)[C@H](CCCNC(=N)N)NC(=O)[C@@H](CCCNC(=N)N)NC1=O [compound 60, cyclo(-Leu-^DArg-Arg-Trp-^DPro-Thr-)] (cyclo(L[dR]RW[dP]T))
